Experimental data: the supplement of paper PMC10307832

Key:
Experiment in all cases: relative viability (nuclei count vs DMSO), 5 days (fraction); higher = more cells survive
[1] = compound: CC1=C(N=C(N=C1N)[C@H](CC(=O)N)NC[C@@H](C(=O)N)N)C(=O)N[C@@H]([C@H](C2=CN=CN2)OC3C(C(C(C(O3)CO)O)O)OC4C(C(C(C(O4)CO)O)OC(=O)N)O)C(=O)N[C@H](C)[C@H]([C@H](C)C(=O)N[C@@H]([C@@H](C)O)C(=O)NCCC5=NC(=CS5)C6=NC(=CS6)C(=O)NCCC[S+](C)C)O [Bleomycin] + O=C(c1cc(Cc2n[nH]c(=O)c3ccccc23)ccc1F)N1CCN(C(=O)C2CC2)CC1 [Olaparib] (partner 8 µM); settings: main component drawn
Summary of the method: (§1)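 Lung cancer cell lines, seeded in 1536-well plates, were treated the following day by pin tool with a single drug or with five library-drug doses (not always all listed) in √10 steps on top of a fixed anchor-drug dose. Cells were fixed and nuclei stained in one step after 5 days, and nuclei were counted. Relative viability is the nuclei count for treated wells divided by that for vehicle wells, reported as medians of duplicate plates.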

[2] = compound: CC1=C(N=C(N=C1N)[C@H](CC(=O)N)NC[C@@H](C(=O)N)N)C(=O)N[C@@H]([C@H](C2=CN=CN2)OC3C(C(C(C(O3)CO)O)O)OC4C(C(C(C(O4)CO)O)OC(=O)N)O)C(=O)N[C@H](C)[C@H]([C@H](C)C(=O)N[C@@H]([C@@H](C)O)C(=O)NCCC5=NC(=CS5)C6=NC(=CS6)C(=O)NCCC[S+](C)C)O [Bleomycin] + Nc1nc2[nH]cc(CCc3ccc(C(=O)N[C@@H](CCC(=O)O)C(=O)O)cc3)c2c(=O)[nH]1 [Pemetrexed] (partner 0.2 µM); settings: main component drawn
Summary of the method: as §1

[3] = compound: COc1cc([C@@H]2c3cc4c(cc3[C@@H](O[C@@H]3O[C@@H]5CO[C@@H](C)O[C@H]5[C@H](O)[C@H]3O)[C@H]3COC(=O)[C@H]23)OCO4)cc(OC)c1O [Etoposide] + O=C(CCCCCCC(=O)Nc1ccccc1)NO [Vorinostat] (partner 1 µM)
Summary of the method: as §1

[4] = compound: COc1cc([C@@H]2c3cc4c(cc3[C@@H](O[C@@H]3O[C@@H]5CO[C@@H](C)O[C@H]5[C@H](O)[C@H]3O)[C@H]3COC(=O)[C@H]23)OCO4)cc(OC)c1O [Etoposide] + CS(=O)(=O)N1CCN(Cc2cc3nc(-c4cccc5[nH]ncc45)nc(N4CCOCC4)c3s2)CC1 [Pictilisib] (partner 1 µM)
Summary of the method: as §1

HCC-827 showed a relative viability ([1]; first compound 0.01 µM) of 0.522, a relative viability ([1]; first compound 0.1 µM) of 0.446 and a relative viability ([1]; first compound 0.3162 µM) of 0.209. For the same cell line, the relative viability ([1]; first compound 1 µM) was 0.161, the relative viability ([2]; first compound 0.01 µM) was 0.252 and the relative viability ([2]; first compound 0.1 µM) was 0.25. The relative viability ([2]; first compound 0.3162 µM) was 0.235, the relative viability ([2]; first compound 1 µM) was 0.207 and the relative viability ([3]; first compound 0.01 µM) was 0.917. For the same cell line, the relative viability ([3]; first compound 0.03162 µM) was 0.972, the relative viability ([3]; first compound 0.1 µM) was 0.746 and the relative viability ([3]; first compound 0.3162 µM) was 0.605. It also gave a relative viability ([3]; first compound 1 µM) of 0.181, a relative viability ([4]; first compound 0.01 µM) of 1.03 and a relative viability ([4]; first compound 0.03162 µM) of 0.878. It also gave a relative viability ([4]; first compound 0.1 µM) of 0.564, a relative viability ([4]; first compound 0.3162 µM) of 0.479 and a relative viability ([4]; first compound 1 µM) of 0.366.
Work on HOP-62 yielded a relative viability ([1]; first compound 0.01 µM) of 0.175, a relative viability ([1]; first compound 0.03162 µM) of 0.137 and a relative viability ([1]; first compound 0.1 µM) of 0.0997. The relative viability ([1]; first compound 0.3162 µM) was 0.0722, the relative viability ([1]; first compound 1 µM) was 0.0872 and the relative viability ([2]; first compound 0.01 µM) was 0.277. The relative viability ([2]; first compound 0.03162 µM) was 0.361, the relative viability ([2]; first compound 0.1 µM) was 0.303 and the relative viability ([2]; first compound 0.3162 µM) was 0.141. The relative viability ([2]; first compound 1 µM) was 0.128, the relative viability ([3]; first compound 0.01 µM) was 0.631 and the relative viability ([3]; first compound 0.03162 µM) was 0.711. For the same cell line, the relative viability ([3]; first compound 0.1 µM) was 0.381, the relative viability ([3]; first compound 0.3162 µM) was 0.267 and the relative viability ([3]; first compound 1 µM) was 0.115. For the same cell line, the relative viability ([4]; first compound 0.01 µM) was 0.796, the relative viability ([4]; first compound 0.03162 µM) was 1.01 and the relative viability ([4]; first compound 0.1 µM) was 0.321. It also gave a relative viability ([4]; first compound 0.3162 µM) of 0.448 and a relative viability ([4]; first compound 1 µM) of 0.149.
IA-LM was tested, and the relative viability ([1]; first compound 0.01 µM) was 0.681, the relative viability ([1]; first compound 0.03162 µM) was 0.629 and the relative viability ([1]; first compound 0.1 µM) was 0.716. The relative viability ([1]; first compound 0.3162 µM) was 0.474, the relative viability ([1]; first compound 1 µM) was 0.328 and the relative viability ([3]; first compound 0.01 µM) was 0.701. For the same cell line, the relative viability ([3]; first compound 0.03162 µM) was 1, the relative viability ([3]; first compound 0.1 µM) was 0.577 and the relative viability ([3]; first compound 0.3162 µM) was 0.826. The relative viability ([3]; first compound 1 µM) was 0.354, the relative viability ([4]; first compound 0.01 µM) was 0.398 and the relative viability ([4]; first compound 0.03162 µM) was 0.31. It also gave a relative viability ([4]; first compound 0.1 µM) of 0.236, a relative viability ([4]; first compound 0.3162 µM) of 0.282 and a relative viability ([4]; first compound 1 µM) of 0.138.
LC-2-ad was tested, and the relative viability ([1]; first compound 0.01 µM) was 0.574, the relative viability ([1]; first compound 0.03162 µM) was 0.431 and the relative viability ([1]; first compound 0.1 µM) was 0.287. For the same cell line, the relative viability ([1]; first compound 0.3162 µM) was 0.235, the relative viability ([1]; first compound 1 µM) was 0.219 and the relative viability ([2]; first compound 0.01 µM) was 0.267. For the same cell line, the relative viability ([2]; first compound 0.03162 µM) was 0.265, the relative viability ([2]; first compound 0.1 µM) was 0.251 and the relative viability ([2]; first compound 0.3162 µM) was 0.254. The relative viability ([2]; first compound 1 µM) was 0.219, the relative viability ([3]; first compound 0.01 µM) was 0.687 and the relative viability ([3]; first compound 0.03162 µM) was 0.736. It also gave a relative viability ([3]; first compound 0.1 µM) of 0.69, a relative viability ([3]; first compound 0.3162 µM) of 0.459 and a relative viability ([3]; first compound 1 µM) of 0.245. The relative viability ([4]; first compound 0.01 µM) was 0.448, the relative viability ([4]; first compound 0.03162 µM) was 0.595 and the relative viability ([4]; first compound 0.1 µM) was 0.318. The relative viability ([4]; first compound 0.3162 µM) was 0.237 and the relative viability ([4]; first compound 1 µM) was 0.16.
